Like-named read-outs stand apart in the source and are kept apart here. Where a SMILES comes first, the peptide text is derived from it.
How the values were obtained:
P. aeruginosa = assay: microbe, parasite or virus in culture; assay type: cell-based, Pseudomonas aeruginosa
Method in brief: (§1)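 Peptides were serially diluted twofold in Mueller-Hinton medium and combined 1:1 with bacterial suspensions prepared at 2×10^6 CFU. Readout was the minimal inhibitory concentration, i.e. the lowest concentration with no growth.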

A. baumannii [1] = assay: microbe, parasite or virus in culture; assay type: cell-based, Acinetobacter baumannii
Method in brief: as §1

MDRAB 12035 [2] = assay: microbe, parasite or virus in culture; assay type: cell-based, Acinetobacter baumannii
Method in brief: as §1

MDRST 8007 = assay: Minimal inhibitory concentration (MIC), single agent; assay type: cell-based, Salmonella typhimurium; details: agent alone
Method in brief: as §1

S. epidermidis = assay: microbe, parasite or virus in culture; assay type: cell-based, Staphylococcus epidermidis
Method in brief: as §1

E. coli [3] = assay: MIC of antibiotic during combined treatment with antimicrobial peptide; assay type: cell-based, Escherichia coli; details: for Antibiotic MIC, Erythromycin / Antibiotic MIC, Linezolid / Antibiotic MIC, Vancomycin: E. coli
Method in brief: (§2)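 Antibiotic diluted in MH medium, dispensed per well with peptide; setup repeated with roles reversed; MIC read per combination.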

A. baumannii [4] = assay: as above; assay type: cell-based, Acinetobacter baumannii; details: for Antibiotic MIC, Erythromycin / Antibiotic MIC, Linezolid / Antibiotic MIC, Vancomycin: A. baumannii
Method in brief: as §2

MDRAB 12035 [5] = assay: as above; assay type: cell-based, Acinetobacter baumannii
Method in brief: (§3)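 Antibiotic MIC came from antibiotic dilutions added to bacteria (2×10^6 CFU/ml, MH medium) already combined with peptide serially diluted 2:1 from its own MIC. Swapping the roles of the two agents gave the peptide MIC.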

E. coli [6] = assay type: cell-based, Escherichia coli; details: E. coli
Method in brief: as §3

MDREC 1229 = assay type: cell-based, Escherichia coli
Method in brief: as §3

A. baumannii [7] = assay: MIC of antimicrobial peptide during combined treatment with antibiotic; assay type: cell-based, Acinetobacter baumannii
Method in brief: as §3

MDRAB 12035 [8] = assay: as above; assay type: cell-based, Acinetobacter baumannii
Method in brief: as §3

[9] = combined with peptide at 1 μg/ml
[10] = combined with peptide at 2 μg/ml
[11] = combined with peptide at 4 μg/ml
[12] = combined with peptide at 6 μg/ml
[13] = combined with peptide at 8 μg/ml
[14] = combined with peptide at 16 μg/ml
[15] = combined with peptide at 32 μg/ml
[16] = combined with peptide at 64 μg/ml
[17] = peptide treatment concentration 1 μg/ml
[18] = peptide treatment concentration 2 μg/ml
[19] = peptide treatment concentration 4 μg/ml
[20] = peptide treatment concentration 6 μg/ml
[21] = peptide treatment concentration 8 μg/ml
[22] = peptide treatment concentration 16 μg/ml
[23] = peptide treatment concentration 32 μg/ml
[24] = peptide treatment concentration 64 μg/ml
[25] = with Erythromycin […] (Conc./MIC 1)
[26] = erythromycin 4 μg/ml (Conc./MIC 1/8)
[27] = erythromycin 8 μg/ml (Conc./MIC 1/4)
[28] = erythromycin 16 μg/ml (Conc./MIC 1/2)
[29] = erythromycin 32 μg/ml (Conc./MIC 1)
[30] = vancomycin 512 μg/ml (Conc./MIC 1/2)
[31] = vancomycin 1024 μg/ml (Conc./MIC 1)

CC[C@H](C)[C@H](NC(=O)[C@H](CCCCN)NC(=O)[C@H](Cc1c[nH]c2ccccc12)NC(=O)[C@@H](N)CCCNC(=N)N)C(=O)N[C@@H](Cc1ccccc1)C(=O)N[C@@H](CCCCN)C(=O)N[C@@H](CCCCN)C(=O)N[C@H](C(=O)N1CCC[C@H]1C(=O)N[C@@H](CCCCN)C(=O)N[C@@H](Cc1ccccc1)C(=O)N[C@@H](CC(C)C)C(=O)N[C@@H](Cc1c[nH]cn1)C(=O)N[C@@H](CO)C(=O)N[C@@H](C)C(=O)N[C@@H](CCCCN)C(=O)N[C@@H](CCCCN)C(=O)N[C@@H](Cc1c[nH]c2ccccc12)C(N)=O)[C@@H](C)CC [PapMA-2, RWK IFK KIP KFL HSA KKW-NH2] (H-RWKIFKKIPKFLHSAKKW-NH2; N-terminus assumed)
>128 µg/mL: Minimal inhibitory concentration MIC (S. epidermidis) | Antibiotic MIC, Vancomycin (E. coli [3]; vancomycin combined with peptide at 1 μg/ml) | Antibiotic MIC, Vancomycin (E. coli [3]; vancomycin combined with peptide at 2 μg/ml) | Antibiotic MIC, Vancomycin (E. coli [3]; vancomycin combined with peptide at 4 μg/ml) | Antibiotic MIC, Linezolid (A. baumannii [4]; [9]) | Antibiotic MIC, Vancomycin (A. baumannii [4]; [9]) | Linezolid MIC during combined treatment with peptide (MDRAB 12035 [5]; [17]) | Vancomycin MIC during combined treatment with peptide (MDRAB 12035 [5]; [17]) | Vancomycin MIC during combined treatment with peptide (MDRAB 12035 [5]; [18])
64 µg/mL: Antibiotic MIC, Erythromycin (E. coli [3]; erythromycin combined with peptide at 1 μg/ml) | Antibiotic MIC, Linezolid (E. coli [3]; linezolid combined with peptide at 2 μg/ml) | Antibiotic MIC, Vancomycin (E. coli [3]; vancomycin combined with peptide at 6 μg/ml) | Antibiotic MIC, Linezolid (A. baumannii [4]; [10]) | Linezolid MIC during combined treatment with peptide (MDRAB 12035 [5]; [18])
8 µg/mL: Antibiotic MIC, Linezolid (E. coli [3]; linezolid combined with peptide at 8 μg/ml) | Antibiotic MIC, Linezolid (E. coli [3]; linezolid combined with peptide at 16 μg/ml) | Antibiotic MIC, Vancomycin (E. coli [3]; vancomycin combined with peptide at 16 μg/ml) | Antibiotic MIC, Erythromycin (A. baumannii [4]; [11]) | Antibiotic MIC, Linezolid (A. baumannii [4]; [13]) | Antibiotic MIC, Vancomycin (A. baumannii [4]; [13]) | Linezolid MIC during combined treatment with peptide (MDRAB 12035 [5]; [21])
32 µg/mL: Minimal inhibitory concentration MIC (MDRST 8007) | Antibiotic MIC, Erythromycin (E. coli [3]; erythromycin combined with peptide at 2 μg/ml) | Antibiotic MIC, Vancomycin (E. coli [3]; vancomycin combined with peptide at 8 μg/ml) | Antibiotic MIC, Linezolid (A. baumannii [4]; [11]) | Antibiotic MIC, Vancomycin (A. baumannii [4]; [11]) | Erythromycin MIC during combined treatment with peptide (MDRAB 12035 [5]; [17]) | Linezolid MIC during combined treatment with peptide (MDRAB 12035 [5]; [19]) | Linezolid MIC during combined treatment with peptide (MDRAB 12035 [5]; [20]) | Vancomycin MIC during combined treatment with peptide (MDRAB 12035 [5]; [20])
higher level than the PapMA-1 peptide: Synergistic effect of antibacterial activity with existing antibiotics compared with PapMA-1 (E. coli [3]; E. coli and MDREC1229) | Synergistic effect of antibacterial activity with existing antibiotics compared with PapMA-1 (A. baumannii [4]; A. baumannii and MDRAB 12035)
0.125 µg/mL: Antibiotic MIC, Erythromycin (E. coli [3]; erythromycin combined with peptide at 32 μg/ml) | Antibiotic MIC, Erythromycin (A. baumannii [4]; [13])
4 µg/mL: Antibiotic MIC, Linezolid (E. coli [3]; linezolid combined with peptide at 32 μg/ml) | Antibiotic MIC, Vancomycin (E. coli [3]; vancomycin combined with peptide at 32 μg/ml) | Erythromycin MIC during combined treatment with peptide (MDRAB 12035 [5]; [19]) | Peptide MIC during treatment with antibiotic (A. baumannii [7]; [26]) | Peptide MIC during treatment with antibiotic (A. baumannii [7]; [27]) | Peptide MIC during treatment with antibiotic (A. baumannii [7]; linezolid 32 μg/ml (Conc./MIC 1/8)) | Peptide MIC during treatment with antibiotic (A. baumannii [7]; linezolid 64 μg/ml (Conc./MIC 1/4)) | Peptide MIC during treatment with erythromycin (MDRAB 12035 [8]; [26]) | Peptide MIC during treatment with erythromycin (MDRAB 12035 [8]; [27]) | Peptide MIC during treatment with linezolid (MDRAB 12035 [8]; linezolid 64 μg/ml (Conc./MIC 1/8)) | Peptide MIC during treatment with vancomycin (MDRAB 12035 [8]; vancomycin […] (Conc./MIC 1/8))
0 µg/mL: Antibiotic MIC, Erythromycin (E. coli [3]; erythromycin combined with peptide at 64 μg/ml) | Antibiotic MIC, Linezolid (E. coli [3]; linezolid combined with peptide at 64 μg/ml) | Antibiotic MIC, Vancomycin (E. coli [3]; vancomycin combined with peptide at 64 μg/ml) | Antibiotic MIC, Erythromycin (A. baumannii [4]; [14]) | Antibiotic MIC, Linezolid (A. baumannii [4]; [14]) | Antibiotic MIC, Vancomycin (A. baumannii [4]; [14]) | Antibiotic MIC, Erythromycin (A. baumannii [4]; [15]) | Antibiotic MIC, Linezolid (A. baumannii [4]; [15]) | Antibiotic MIC, Vancomycin (A. baumannii [4]; [15]) | Antibiotic MIC, Erythromycin (A. baumannii [4]; [16]) | Antibiotic MIC, Linezolid (A. baumannii [4]; [16]) | Antibiotic MIC, Vancomycin (A. baumannii [4]; [16]) | Erythromycin MIC during combined treatment with peptide (MDRAB 12035 [5]; [22]) | Linezolid MIC during combined treatment with peptide (MDRAB 12035 [5]; [22]) | Vancomycin MIC during combined treatment with peptide (MDRAB 12035 [5]; [22]) | Erythromycin MIC during combined treatment with peptide (MDRAB 12035 [5]; [23]) | Linezolid MIC during combined treatment with peptide (MDRAB 12035 [5]; [23]) | Vancomycin MIC during combined treatment with peptide (MDRAB 12035 [5]; [23]) | Erythromycin MIC during combined treatment with peptide (MDRAB 12035 [5]; [24]) | Linezolid MIC during combined treatment with peptide (MDRAB 12035 [5]; [24]) | Vancomycin MIC during combined treatment with peptide (MDRAB 12035 [5]; [24]) | Peptide MIC (E. coli [6]; [25]) | Peptide MIC (E. coli [6]; with Linezolid […] (Conc./MIC 1)) | Peptide MIC (E. coli [6]; with Vancomycin 1024 μg/ml (Conc./MIC 1)) | Peptide MIC (MDREC 1229; [25]) | Peptide MIC (MDREC 1229; with Linezolid 512 μg/ml (Conc./MIC 1)) | Peptide MIC during treatment with antibiotic (A. baumannii [7]; [29]) | Peptide MIC during treatment with antibiotic (A. baumannii [7]; linezolid […] (Conc./MIC 1)) | Peptide MIC during treatment with antibiotic (A. baumannii [7]; [31]) | Peptide MIC during treatment with erythromycin (MDRAB 12035 [8]; [29]) | Peptide MIC during treatment with linezolid (MDRAB 12035 [8]; linezolid 512 μg/ml (Conc./MIC 1))
4 times: Antibacterial activity relative to PapMA-1 (A. baumannii [1]; A. baumannii and antibiotic-resistant strains thereof)
1 µg/mL: Antibiotic MIC, Erythromycin (A. baumannii [4]; [12]) | Peptide MIC during treatment with antibiotic (A. baumannii [7]; [28]) | Peptide MIC during treatment with linezolid (MDRAB 12035 [8]; linezolid […] (Conc./MIC 1/2)) | Peptide MIC during treatment with vancomycin (MDRAB 12035 [8]; [30])
twice to four times: Lowering of the MIC value of the antibiotics mixed with peptide compared with PapMA-1 (E. coli [3]; same peptide concentration as PapMA-1)
0.5 µg/mL: Antibiotic MIC, Erythromycin (E. coli [3]; erythromycin combined with peptide at 8 μg/ml) | Peptide MIC during treatment with antibiotic (A. baumannii [7]; linezolid […] (Conc./MIC 1/2)) | Peptide MIC during treatment with antibiotic (A. baumannii [7]; vancomycin […] (Conc./MIC 1/4))
128 µg/mL: Antibiotic MIC, Linezolid (E. coli [3]; linezolid combined with peptide at 1 μg/ml) | Antibiotic MIC, Vancomycin (A. baumannii [4]; [10]) | Vancomycin MIC during combined treatment with peptide (MDRAB 12035 [5]; [19])
0.25 µg/mL: Antibiotic MIC, Erythromycin (E. coli [3]; erythromycin combined with peptide at 16 μg/ml) | Erythromycin MIC during combined treatment with peptide (MDRAB 12035 [5]; [21]) | Peptide MIC during treatment with antibiotic (A. baumannii [7]; [30]) | Peptide MIC during treatment with vancomycin (MDRAB 12035 [8]; [31])
2 µg/mL: Antibiotic MIC, Erythromycin (E. coli [3]; erythromycin combined with peptide at 6 μg/ml) | Erythromycin MIC during combined treatment with peptide (MDRAB 12035 [5]; [20]) | Peptide MIC during treatment with antibiotic (A. baumannii [7]; vancomycin […] (Conc./MIC 1/8)) | Peptide MIC during treatment with erythromycin (MDRAB 12035 [8]; [28]) | Peptide MIC during treatment with linezolid (MDRAB 12035 [8]; linezolid […] (Conc./MIC 1/4)) | Peptide MIC during treatment with vancomycin (MDRAB 12035 [8]; vancomycin […] (Conc./MIC 1/4))
16 µg/mL: Minimal inhibitory concentration MIC (P. aeruginosa) | Minimal inhibitory concentration MIC (A. baumannii [1]) | Peptide MIC, peptide alone (A. baumannii [1]) | Minimal inhibitory concentration MIC (MDRAB 12035 [2]) | Peptide MIC, peptide alone (MDRAB 12035 [2]) | Antibiotic MIC, Erythromycin (E. coli [3]; erythromycin combined with peptide at 4 μg/ml) | Antibiotic MIC, Linezolid (E. coli [3]; linezolid combined with peptide at 4 μg/ml) | Antibiotic MIC, Linezolid (E. coli [3]; linezolid combined with peptide at 6 μg/ml) | Antibiotic MIC, Erythromycin (A. baumannii [4]; [9]) | Antibiotic MIC, Erythromycin (A. baumannii [4]; [10]) | Antibiotic MIC, Linezolid (A. baumannii [4]; [12]) | Antibiotic MIC, Vancomycin (A. baumannii [4]; [12]) | Erythromycin MIC during combined treatment with peptide (MDRAB 12035 [5]; [18]) | Vancomycin MIC during combined treatment with peptide (MDRAB 12035 [5]; [21])
